The nature of series [1]: Pharmacokinetic study following a single s.c. administration of 1-MT. It counts as in vivo, domestic pigs (Sus scrofa domestica). The note with it: for Cmax: means ± standard deviation.
The conditions of series [2]: mice, within 48 h post dose; cited from earlier work.
Series [3] is classed as in vivo, domestic pigs (Sus scrofa domestica).
A short description of series [4]: Pharmacokinetic study following repeated s.c. administration of 1-MT. Format: in vivo, domestic pigs (Sus scrofa domestica).
The conditions of series [5]: repeated oral administration at a saturating dose, rats and dogs; cited from earlier work.
For a further series, the system named is plasma proteins. The note with it: cited from earlier work.
The conditions of series [6]: given by mouth over a time frame of up to 4 weeks; cited from earlier work.
[7] abbreviates: German Landrace, pig, plasma, sc, 1 g.
Setting [8] is: one-compartment model fitted by numerical simulation to single-dose plasma data.
[9] abbreviates: single s.c. administration of 1 g 1-MT, n=3.
Where [10] appears, read: 12 h after the final of five daily s.c. injections, n=6.
Where [11] appears, read: endogenous TRP, all four animals.
The mark [12] stands for this setting: endogenous TRP, 12 h after the final s.c. injection of 1-MT.

Results on two compounds are retold here after paper PMC4873483 (Experimental Animals, 2015).

The structures appear in SMILES notation. Where two headings read alike, the source gives them in different places.

Broadly, the AUC(0-t) is the area under the concentration-time curve up to a stated or last time point. Lower therefore signals less exposure. By Tmax is commonly meant the time from dosing to the highest level. As usually defined, the half-life is the time in which the quantity being followed falls by half. A lower half-life goes with rapid decline. For `Cn1cc(C[C@H](N)C(=O)O)c2ccccc21` [1-MT, 1-methyl-L-tryptophan], in series [1] (setting [7]), the AUC(0-t) worked out at 960 ± 346 µM·h, the Tmax was 12 h and the concentration at 24 h turned out to be 21.1 ± 5.3 µM. In series [1] (German Landrace, pig, plasma, sc, 1 g, Cmax, maximum concentration in pigs plasma, single s.c. administration of 1 g 1-MT, n=3), this compound returned a Cmax of 29.1 ± 8 µM. For the same compound, in series [1] (German Landrace, pig, plasma, sc, 1 g, T1/2, half-life, single s.c. administration of 1 g 1-MT, n=3), the half-life is 10.9 ± 2 h. Moreover, in series [1] (setting [8]), the kabsorption is 0.08 min⁻¹, the kelimination is 0.001 min⁻¹ and the krelease was 0.0018 min⁻¹. Besides, in series [1] (read-out: Cmax, maximum concentration in pigs plasma, single s.c. administration of 1 g 1-MT, n=3), the Cmax stood at 29.1 ± 7.97 µM. In series [1] (setting [9]), the “T1/2, half-life” value is given as 10.93 ± 2.03 h and the “k, first-order kinetic rate constant” value was 0.065 ± 0.011 h⁻¹. In series [2], the excreted via feces is 13% and the excreted via urine is on record as 35%. The compound further had a daily feed uptake in series [3] (five daily s.c. administrations of 1 g 1-MT, not different from MYR (P = 0.97)) of 0.66 ± 0.02 kg. Further, in series [3] (five-day period of 1-MT administration), the fever response result is on record as “no fever response”. For the same compound, in series [3] (single s.c. 1 g 1-MT, visual inspection twice daily), the “health status after a single s.c. injection” value is “No impairment of the health status could be observed”. Also, in series [4] (1 g 1-MT s.c. daily for five days), the “steady state of plasma trough concentrations” value is on record as “steady state conditions of trough values were reached after two subcutaneous administrations”. Further, in series [4] (12 h after the final of five daily s.c. injections), the “1-MT concentrations in peripheral tissues” value is listed as 48–152 nmol/g wet tissue weight. For the same compound, in series [4] (setting [10]), the “1-MT concentration in kidney and liver” value is “greater than 100 nmol/g wet tissue weight”; the “1-MT concentration in the different brain areas” value is recorded as “lower than 20 nmol/g wet tissue weight”. In series [4] (setting [7]), the concentration at 12 h worked out at 38 µM. For the same compound, the “share of 1-MT accumulated in organs derived from contamination with blood” value in series [4] (estimated from plasma 1-MT and organ blood volumes (32-408 µl/g)) was “less than 5%”. Further, in series [5], the tolerability result is “well tolerated, with no toxic effects”. Besides, the “bound to plasma proteins” value in the series with plasma proteins was “less than 15%”. In addition, the maximum tolerated dose in series [6] is on record as 1.6 g/day.

Turning to `N[C@@H](Cc1c[nH]c2ccccc12)C(=O)O` [TRP, tryptophan], in series [1] (setting [11]), the “maximum TRP concentration in plasma over the 7-day period” value was determined as 37.7 µM and the “minimum TRP concentration in plasma over the 7-day period” value worked out at 13.1 µM. In addition, the “average TRP concentration in plasma over the entire 7-day period” value in series [1] (endogenous TRP, all four animals, after single s.c. 1-MT or MYR) was 22.8 ± 5.1 µM. Moreover, in series [4] (setting [12]), the “TRP concentration in kidney, liver, adrenal gland, spleen, and thyroid gland” value is “greater than 40 nmol/g wet tissue weight”; the “TRP concentration in the other tissues” value was “lower than 30 nmol/g wet tissue”.
